Data as given in article PMC6104039 (Nature Communications, 2018).

How the values were obtained:
[1] = P053 accumulation in tissues, LC-MS/MS; format: in vivo, mice; conditions: 5 mg/kg daily for 2 weeks
C57BL6/J mice [2] = experiment: Body composition (EchoMRI) and fat pad weights in mice on chow or HFD; format: in vivo
Procedure: Male C57BL6/J mice were obtained from the Animal Resources Centre in Perth (WA, Australia). […] Treatment was commenced at the same time as mice were randomised to dietary groups. The experiments were approved by the UNSW animal care and ethics committee (ACEC 15/48B), and followed guidelines issued by the National Health and Medical Research Council of Australia.
Body composition (lean mass and fat mass) was determined by EchoMRI-900 Body Composition Analyser (EchoMRI Corporation Pte Ltd, Singapore) in accordance with the manufacturer’s instructions.

C57BL6/J mice [3] = experiment: Oral glucose tolerance test with labelled glucose and fasting insulin; format: in vivo; conditions: 5 mg/kg, chow or HFD
Procedure: Mice were fasted for 6 h, then received 50 mg stable isotope-labeled glucose (6,6-^2H glucose, Sigma Aldrich) by oral gavage. Blood glucose was measured with a glucose meter (Accu-Check, Roche, NSW, Australia) prior to and at 15, 30, 45, 60 and 90 min following gavage. Additional blood (~10 μL) was collected from the tail tip prior to and at 15 and 60 min following glucose gavage. These samples were used to perform mass isotopologue analysis of plasma glucose via gas chromatography–mass spectrometry (GC–MS)[70]. Specifically, plasma glucose was separated into the labelled glucose load and the endogenous (liver/kidney-derived) unlabelled glucose to permit differentiation of glucose disposal from endogenous glucose production (Supplementary Figure 10). Fasting blood insulin was measured using an Ultrasensitive Mouse Insulin ELISA Kit (Crystal Chem, Illinois, USA). […]
endogenous glucose synthesis. Plasma concentration of (a) labelled glucose resulting from an oral glucose load, and (b) endogenous glucose, during the oral glucose tolerance test. Mice

SkM [4] = experiment: Real-time PCR of respiratory complex subunits and regulators of mitochondrial biogenesis in SkM; format: in vivo, mice
Procedure: PCR (40 cycles) was performed on a LightCycler 480 (Roche) using SensiFAST SYBR mastermix (Bioline). For quantification of CerS1 and CerS2 expression, total RNA was purified from mouse tissues with TRIzol reagent (Sigma-Aldrich), followed by DNase treatment (Promega), and reverse transcribed using random hexamer primers with FirstStrand cDNA synthesis kit (Roche), according to manufacturer’s instructions. CerS1 and CerS2 gene expression was determined using a standard curve of Ct against input cDNA, and normalised to 18s RNA. For mitochondrial genes and transcriptional regulators in SkM, total RNA was prepared with TRIzol, and oligo dT primer was used for reverse transcription. Relative gene expression was determined using the ΔΔCt method, with 36B4 and Rpl13 as the reference genes. Samples with excessively high Ct values (Ct > 30 for the housekeeping genes) were removed from data analysis (two samples for Fig. 6a, four samples for Fig. 6g). Gene-specific primers were as follows: […]

SkM [5] = experiment: Western blotting of SkM (respiratory complex subunits, PGC-1α, AMPK, ACC); format: in vivo, mice
Procedure: Tissues were homogenized in RIPA buffer (100 mM NaCl, 10 mM Tris, pH 7.4, 1% Triton X-100, 0.5% sodium deoxycholate, 0.1% SDS, 1 mM EDTA, 10% Glycerol) containing complete protease inhibitor cocktail (Roche) and phosphatase inhibitors (3 mM β-glycerophosphate, 1 mM sodium orthovanadate, 5 mM sodium fluoride) by bead-beating in a Precellys 24 at 4 °C. Extracts were centrifuged at 6500 rpm for 10 min at 4 °C. Supernatant was collected and protein concentrations determined with the Bicinchoninic acid (BCA) assay (Thermo Scientific). Protein lysates (15 μg) were resolved on SDS-PAGE, transferred to polyvinylidene difluoride (PVDF) membrane, and immunoblotted with antibodies against Complex I subunit NADH dehydrogenase (#ab110242, Abcam), Complex II succinate dehydrogenase subunit B (#ab14714, Abcam), Complex III subunit Core 2 Ubiquinol-cytochrome c reductase (#ab14745, Abcam), Complex IV Cytochrome c oxidase (#11967S, Cell Signaling Technology), Complex V ATP synthase α subunit (#ab14748, Abcam), PGC1α (#AB3242, Merck Millipore), AMPKα (#2532S, Cell Signaling Technology), phospho- AMPKα (Thr172) (#2535S, Cell Signaling Technology), ACC (#3662S, Cell Signaling Technology), phospho-ACC (Ser 79, which also detects Ser 212 in ACC2, the predominant ACC isoform in SkM) (#3661S, Cell Signaling Technology) and pan 14-3-3 (#sc-629, Santa Cruz Biotechnology). All antibodies were used at a dilution of 1:1000. A common loading control was included on every gel to account for variation in relative band intensities between different blots. Antibody-antigen binding was detected using ECL Reagent (GE Healthcare) and imaged on a Fujifilm Las-4000 CCD camera. Bands were quantified by densitometry with Fuji ImageQuantTL software. Full images of blots in Fig. 6 are shown in Supplementary Figure 12.
Western blots for phospho-AMPK (Thr172), total AMPK, phospho-ACC (Ser79), and total
ACC in vehicle- or P053-treated mice on a chow or HFD. Denistometry for phospho-
AMPK/total AMPK and phospho-ACC/total ACC is shown (n = 10 mice per group).
(1 picture or pasted object on this page, not shown here)

SkM [6] = experiment: Mitochondrial DNA content of SkM by quantitative PCR; format: in vivo, mice
Procedure: Total DNA was isolated using standard phenol:chloroform extraction, followed by RNase H (NEB) treatment. Relative levels of nuclear and mitochondrial DNA were determined by quantitative PCR on a LightCycler 480 (Roche) using SensiFAST SYBR mastermix (Bioline). Primers for quantification of genomic DNA were: 5′- […]-3′, and 5′- […]-3′; and mitochondrial DNA: 5′- […]-3′, and 5′- […]-3′[73]. Calibration curves of Ct against input DNA were prepared from a pooled sample of mouse SkM DNA, and used to calculate the relative abundance of mitochondrial to nuclear DNA in each sample.

| SMILES | melting point [°C] | compound distribution in tissues [1] | levels of the compound in brain tissue compared to SkM [1] | uptake in the liver [1] | whole-body fat mass and weight of individual white adipose depots (C57BL6/J mice [2]; HFD, 5 mg/kg, 4–6 weeks) | reduction of the gain in fat pad mass on a HFD (C57BL6/J mice [2]; both fat pads (inguinal and epididymal)) [%] | gain in epididymal fat pad weight, HFD compared to chow (C57BL6/J mice [2]; with P053 treatment) [g] | gain in inguinal fat pad weight, HFD compared to chow (C57BL6/J mice [2]; with P053 treatment) [g] | fasting insulin and glucose tolerance (C57BL6/J mice [3]) | iAUC for the labelled glucose load (C57BL6/J mice [3]) | expression of Gabp1α and Nfe2l2 (SkM [4]) | genes encoding respiratory complex subunits (Co-2, Cytb, Atp6, Ndufb5, Atp5o, Cycs, Cox5b) (SkM [4]) | phosphorylation of AMPK or acetyl-CoA carboxylase (ACC) (SkM [5]) | protein expression of Pgc-1α (SkM [5]) | respiratory complexes at the protein level (SkM [5]) | mitochondrial DNA content (SkM [6]) |
| --- | --- | --- | --- | --- | --- | --- | --- | --- | --- | --- | --- | --- | --- | --- | --- | --- |
| C[C@@](N)(CO)CCc1ccc(OCc2ccccc2)cc1 [G024, (2S)-2-amino-4-(4′-benzyloxyphenyl)-2-methyl-1-butanol] | 196.7 to 197.6 |  |  |  |  |  |  |  |  |  |  |  |  |  |  |  |
| C[C@@](N)(CO)CCc1ccc(OCc2ccc(Cl)c(Cl)c2)cc1 [P053, (S)-2-amino-4-(4-(3,4-dichlorobenzyloxy)phenyl)-2-methylbutan-1-ol] |  | higher in liver and kidney than in muscle and adipose tissue | three-fold lower | substantial uptake | significantly reduced | 44 | 0.29 | 0.15 | no impact | no effect | significantly increased | significant up-regulation | no effect | significantly increased | up-regulated | elevated |
